Each compound was assayed against Cyclin-A2/Cyclin-dependent kinase 2 (Homo sapiens, UniProt P24941) (assay: Biochemical Assay).
From the text: CDK2 and CDK5 IC50 data were attained through the use of Invitrogen™ commercial assays. The method for CDK2 (assay ID: 315, kinase|Z'-LYTE™|CDK2/Cyclin A|Km app) used a 10-point titration. The method for CDK5 (assay ID: 318, kinase|Z'-LYTE™|CDK5/p25|Km app) used a 10-point titration. All the bifunctional compounds showed potent biochemical inhibition on both CDK2/5 enzymes.
Compound `NC(=O)c1c(F)cccc1Nc1nc(NC2CCN(S(=O)(=O)CCNC(=O)CCCCCCCCC#Cc3cccc4c3CN(C3CCC(=O)NC3=O)C4=O)CC2)ncc1Br` (stereo unspecified) [US12466809, Compound 14] has an IC50 of 57.2 nM.
Compound `Cc1ncsc1-c1ccc([C@H](C)NC(=O)[C@@H]2C[C@@H](O)CN2C(=O)[C@@H](NC(=O)CCC(=O)NCCS(=O)(=O)N2CCC(Nc3ncc(Br)c(Nc4cccc(F)c4C(N)=O)n3)CC2)C(C)(C)C)cc1` [US12466809, Compound 12] has an IC50 of 5.3 nM.
For `NC(=O)c1c(F)cccc1Nc1nc(NC2CCN(S(=O)(=O)CCNC(=O)CCCCCCCCCCc3cccc4c3CN(C3CCC(=O)NC3=O)C4=O)CC2)ncc1Br` (stereo unspecified) [US12466809, Compound 15], the IC50 was 50 nM.
Compound `Cc1ncsc1-c1ccc([C@H](C)NC(=O)[C@@H]2C[C@@H](O)CN2C(=O)[C@@H](NC(=O)CCOCCOCCC(=O)NCCS(=O)(=O)N2CCC(Nc3ncc(Br)c(Nc4cccc(F)c4C(N)=O)n3)CC2)C(C)(C)C)cc1` [US12466809, Compound 11] has an IC50 of 6.8 nM.
With `NC(=O)c1c(F)cccc1Nc1nc(NC2CCN(S(=O)(=O)CCNC(=O)CCC(=O)NCCCCCNc3cccc4c3C(=O)N(C3CCC(=O)NC3=O)C4=O)CC2)ncc1Br` (stereo unspecified) [US12466809, Compound 13] the IC50 was 3.8 nM.
`O=C(CCCCCCCCC#Cc1cccc2c1CN(C1CCC(=O)NC1=O)C2=O)NCCS(=O)(=O)N1CCC(Nc2ncc(Br)c(Nc3cccc4c3OCO4)n2)CC1` (stereo unspecified) [US12466809, Compound 16] was tested, and the IC50 was > 370 nM.

Reference: BindingDB's records for patent US12466809 (Dana-Farber Cancer Institute, 2025)
